Test results as given in patent US20240383913A1, “THIOPHENE RING COMPOUND, PREPARATION METHOD THEREFOR AND APPLICATION THEREOF” (CENTER FOR EXCELLENCE IN MOLECULAR CELL SCIENCE, CHINESE …, priority 2021, published 2024).

Key:
[1] = system: hyperlocomotion of the mice induced by MK801; test: Open field test, hyperlocomotion induced by MK801; format: in vivo, C57B6 male mice; settings: for Distance travelled (cm): 5-minute bin
Procedure: Experimental method: The experimental animals were C57B6 male mice, n=8 in each group. This model used C57B6 mice as experimental animals. Hyperlocomotion of the mice in open field was induced by acute injection of a NMDA antagonist MK801. and modeled to test the inhibitory effect of different compounds on hyperkinesia phenotype induced by MK801. All mouse behavior experiments were carried out during the light period, and the whole process was recorded by the camera and locomotive data were tracked and analyzed by behavioral tracking software. The compounds were administered intraperitoneally. Immediately after the injection, the mice entered the open field and their movement trajectories were recorded by the camera. After 30 minutes, the mice received 0.2 mg/kg of MK801 by intraperitoneal injection and returned to the open field immediately after administration and the movement trajectories were further recorded for 120 minutes. The accumulative travelled distance of the mice was counted in a 5-minute bin. Data statistics were performed using Student-t-test analysis, *p<0.05, ** p<0.01, *** p<0.001, **** p<0.0001.

[2] = system: restraint-induced depression-like behaviors; test: Tail suspension test after 5-hour restraint; format: in vivo, C57B6 male mice; settings: for Immobility time (seconds), tail suspension test: 5 hour restraint
Procedure: The experimental animals were C57B6 male mice, n=8 in each group. 5-hour restraint were used to develop depression-like behavioral representations of the mice, then the effects of the compounds on their “depression-like” behaviors were measured according to behavioral performance in tail suspension test and forced swimming test. The specific experimental procedures were as follows: Firstly, the mice were restrained using a mouse fixator for tail vein injection. During the restraint process, all movement abilities of the mice were restricted under the condition of introducing minimal pain to the mice. Compounds were administered intraperitoneally twice, before and after restraint, respectively. After compound administration, the mice returned to the cage to recover for 30 minutes. After 30 minutes recovery, the mice in different groups were subjected to tail suspension test or forced swimming test to measure their “depression-like” behaviors.
Tail suspension test: mouse tails were fixed a cantilever arm on an iron rack using adhesive tape, and the mouse was maintained in a suspension position for 6 minutes. The first 2 minutes were the adaptation period and no data collection was performed. Subsequently, the mouse's immobility behavior was recorded intermittently for the remaining 4 minutes. The duration of immobility was measured to assess the level of behavioral despair in the mice. Data statistics were performed using Student-t-test analysis, *p<0.05, ** p<0.01, *** p<0.001, **** p<0.0001.

[3] = target: 5-HT1A receptor (Homo sapiens (Human), UniProt P08908); test: 5-HT1A receptor Gαi1 BRET (G protein trimer dissociation); format: cell-based; settings: 5-HT1A receptor, G protein pathway;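 further: cells transiently co-expressing 5-HT1A receptor, luciferase-tagged Gαi1, Gβ3 and GFP-tagged Gγ9, seeded in 96-well plates for BRET measurement of G protein signaling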
Chain of 5-HT1A receptor (P08908 whole entry): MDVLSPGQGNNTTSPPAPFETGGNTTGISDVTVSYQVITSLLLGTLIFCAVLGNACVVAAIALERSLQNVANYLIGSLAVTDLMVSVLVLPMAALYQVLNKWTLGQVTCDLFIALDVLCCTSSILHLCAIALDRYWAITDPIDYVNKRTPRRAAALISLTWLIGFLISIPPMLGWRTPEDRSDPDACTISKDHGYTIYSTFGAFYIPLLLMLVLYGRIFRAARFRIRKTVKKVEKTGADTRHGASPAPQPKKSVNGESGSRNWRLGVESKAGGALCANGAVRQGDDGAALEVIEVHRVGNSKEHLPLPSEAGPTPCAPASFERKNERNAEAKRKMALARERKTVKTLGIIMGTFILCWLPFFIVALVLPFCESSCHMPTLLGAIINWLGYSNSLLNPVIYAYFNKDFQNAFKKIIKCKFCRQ
Procedure: The affinity of the compounds of the present disclosure for the 5-HTIA receptors was determined by the method of radioligand competition experiment. In the first step, a cell membrane component containing specific 5-HTIA receptor was prepared. A 10 cm culture dish was used for transfection with 10 ng of the 5-HTIA receptor and 40 μL of PEI. After 48 hours, the 10 cm culture dish was taken out from the cell incubator and the cultured cells had expressed the 5-HTIA receptor. A vacuum pump was used to suck off the culture medium, 3 mL of lysis buffer was added to each culture dish, and the cells were placed in a 4° C. cold room for 10 minutes. After the cells were detached, the cells were transferred to a 15 mL centrifuge tube and centrifuged at 1500 rpm for 5 minutes at 4° C., and the supernatant was discarded. The cell pellet was transferred to a tissue homogenizer, and 3 mL of lysis buffer was added and fully ground until the cells were broken. Then, cell suspension was equally aliquoted into several EP tubes, centrifuged at 12000 rpm for 5 minutes at 4° C., and the supernatant was discarded. The precipitate was the cell membrane component containing the 5-HT1A receptor. […] First, a standard binding buffer was added to the cell membrane component containing the 5-HT1A receptor, and the cell membrane was disrupted and resuspended with an electric tissue homogenizer. 30 μL of membrane protein suspension was added to each well of a 96-well plate. Then, 30 μL of different drugs were added to the 96-well plate sequentially from bottom to top to ensure that the final drug concentrations were 10^−5 M, 10^−6 M, 10^−7 M, 10^−8 M, 10^−9 M, and 0 M, with two replicates per treatment. Next, 30 μL of [3H]-LSD was added to each well of the 96-well plate. The plate was incubated for 2 hours at room temperature in the dark. Detection was conducted. The machine readout value reflected the amount of [3H]-LSD bound on the membrane, and after further data processing, the affinity Ki values of different compounds for the 5-HTIA receptor were obtained. To examine the downstream G protein signaling pathway mediated by 5-HTIA receptors, on the first day, a 6 cm culture dish was used for transfection with 1 μg of 5-HTIA receptors, 1 μg of Gαi1 containing C-terminal seaweed luciferase (Gαi1-Rluc), 1 μg of Gβ3, 1 μg of Gγ9 containing C-terminal green fluorescent protein (Gγ9-GFP), and 16 μL of PEI. The next day, the confluent cells of a 6 cm culture dish were digested and reseeded into a 96-well plate with 100 μL of culture medium was added to each well. On the third day, the drugs were added for test. The 96-well plate was taken out from the cell incubator to decant the culture medium, 40 μL of the substrate coelenterazine 400a (final concentration of 5 μM) was added to each well, and then 20 μL of different drugs were added sequentially from left to right to ensure that the final concentration of the drug decreased gradually from bottom to top, with two replicates per treatment. Finally, the prepared samples were loaded on machine for test. The machine readout value reflected the dissociation of G protein trimer, and thereby indicated the degree of activation of the G protein signaling pathway downstream of the 5-HTIA receptors.

CN(C)C(=O)N[C@H]1CC[C@H](CCN2CCN3c4cccc5scc(c45)CC3C2)CC1 (single isomer, unassigned; (-)) [(−)-I-27]
Distance travelled (cm) ([1]; (−)-I-27 0.2 mg/kg i.p. + MK801 0.2 mg/kg, 80 minutes after MK801): 501.93 ± 119.91 cm
Distance travelled (cm) ([1]; (−)-I-27 0.2 mg/kg i.p. + MK801 0.2 mg/kg, 85 minutes after MK801): 471.35 ± 107.44 cm
Distance travelled (cm) ([1]; (−)-I-27 0.2 mg/kg i.p. + MK801 0.2 mg/kg, 90 minutes after MK801): 399.78 ± 105.26 cm
Distance travelled (cm) ([1]; (−)-I-27 0.2 mg/kg i.p. + MK801 0.2 mg/kg, 95 minutes after MK801): 301.32 ± 70.58 cm
Distance travelled (cm) ([1]; (−)-I-27 0.2 mg/kg i.p. + MK801 0.2 mg/kg, 100 minutes after MK801): 268.55 ± 74.28 cm
Distance travelled (cm) ([1]; (−)-I-27 0.2 mg/kg i.p. + MK801 0.2 mg/kg, 105 minutes after MK801): 299.24 ± 98.85 cm
Distance travelled (cm) ([1]; (−)-I-27 0.2 mg/kg i.p. + MK801 0.2 mg/kg, 110 minutes after MK801): 378.85 ± 88.69 cm
Distance travelled (cm) ([1]; (−)-I-27 0.2 mg/kg i.p. + MK801 0.2 mg/kg, 115 minutes after MK801): 236.86 ± 61.21 cm
Distance travelled (cm) ([1]; (−)-I-27 0.2 mg/kg i.p. + MK801 0.2 mg/kg, 120 minutes after MK801): 183.04 ± 51.72 cm
Distance travelled (cm) ([1]; (−)-I-27 0.2 mg/kg i.p., 0 minutes, before MK801): 426.03 ± 34.51 cm
Distance travelled (cm) ([1]; (−)-I-27 0.2 mg/kg i.p., −5 minutes, before MK801): 420.23 ± 44.8 cm
Distance travelled (cm) ([1]; (−)-I-27 0.2 mg/kg i.p., −10 minutes, before MK801): 462.71 ± 40.83 cm
Distance travelled (cm) ([1]; (−)-I-27 0.2 mg/kg i.p., −15 minutes, before MK801): 534.93 ± 50.26 cm
Distance travelled (cm) ([1]; (−)-I-27 0.2 mg/kg i.p., −20 minutes, before MK801): 614.02 ± 31.52 cm
Distance travelled (cm) ([1]; (−)-I-27 0.2 mg/kg i.p., −25 minutes, before MK801): 741.08 ± 56.17 cm
Distance (cm) travelled in 45 minutes ([1]; (−)-I-27 0.4 mg/kg i.p. + MK801 0.2 mg/kg, 0-45 minute interval after MK-801): 4056.3 cm
Distance travelled (cm) ([1]; (−)-I-27 0.4 mg/kg i.p. + MK801 0.2 mg/kg, 5 minutes after MK801): 479.22 ± 57.64 cm
Distance travelled (cm) ([1]; (−)-I-27 0.4 mg/kg i.p. + MK801 0.2 mg/kg, 10 minutes after MK801): 277.07 ± 32.68 cm
Distance travelled (cm) ([1]; (−)-I-27 0.4 mg/kg i.p. + MK801 0.2 mg/kg, 15 minutes after MK801): 316.03 ± 70.39 cm
Distance travelled (cm) ([1]; (−)-I-27 0.4 mg/kg i.p. + MK801 0.2 mg/kg, 20 minutes after MK801): 370.1 ± 75.27 cm
Distance travelled (cm) ([1]; (−)-I-27 0.4 mg/kg i.p. + MK801 0.2 mg/kg, 25 minutes after MK801): 403.74 ± 108.16 cm
Distance travelled (cm) ([1]; (−)-I-27 0.4 mg/kg i.p. + MK801 0.2 mg/kg, 30 minutes after MK801): 584.67 ± 129.63 cm
Distance travelled (cm) ([1]; (−)-I-27 0.4 mg/kg i.p. + MK801 0.2 mg/kg, 35 minutes after MK801): 633.6 ± 143.49 cm
Distance travelled (cm) ([1]; (−)-I-27 0.4 mg/kg i.p. + MK801 0.2 mg/kg, 40 minutes after MK801): 483.45 ± 104.6 cm
Distance travelled (cm) ([1]; (−)-I-27 0.4 mg/kg i.p. + MK801 0.2 mg/kg, 45 minutes after MK801): 508.42 ± 110.56 cm
Distance travelled (cm) ([1]; (−)-I-27 0.4 mg/kg i.p. + MK801 0.2 mg/kg, 50 minutes after MK801): 541.28 ± 85 cm
Distance travelled (cm) ([1]; (−)-I-27 0.4 mg/kg i.p. + MK801 0.2 mg/kg, 55 minutes after MK801): 483.29 ± 71.91 cm
Distance travelled (cm) ([1]; (−)-I-27 0.4 mg/kg i.p. + MK801 0.2 mg/kg, 60 minutes after MK801): 421.36 ± 61.47 cm
Distance travelled (cm) ([1]; (−)-I-27 0.4 mg/kg i.p. + MK801 0.2 mg/kg, 65 minutes after MK801): 371.77 ± 42.78 cm
Distance travelled (cm) ([1]; (−)-I-27 0.4 mg/kg i.p. + MK801 0.2 mg/kg, 70 minutes after MK801): 347.51 ± 55.13 cm
Distance travelled (cm) ([1]; (−)-I-27 0.4 mg/kg i.p. + MK801 0.2 mg/kg, 75 minutes after MK801): 296.62 ± 78.74 cm
Distance travelled (cm) ([1]; (−)-I-27 0.4 mg/kg i.p. + MK801 0.2 mg/kg, 80 minutes after MK801): 244.49 ± 76.54 cm
Distance travelled (cm) ([1]; (−)-I-27 0.4 mg/kg i.p. + MK801 0.2 mg/kg, 85 minutes after MK801): 160.39 ± 34.08 cm
Distance travelled (cm) ([1]; (−)-I-27 0.4 mg/kg i.p. + MK801 0.2 mg/kg, 90 minutes after MK801): 386.57 ± 158.41 cm
Distance travelled (cm) ([1]; (−)-I-27 0.4 mg/kg i.p. + MK801 0.2 mg/kg, 95 minutes after MK801): 201.39 ± 68.43 cm
Distance travelled (cm) ([1]; (−)-I-27 0.4 mg/kg i.p. + MK801 0.2 mg/kg, 100 minutes after MK801): 234.28 ± 63.3 cm
Distance travelled (cm) ([1]; (−)-I-27 0.4 mg/kg i.p. + MK801 0.2 mg/kg, 105 minutes after MK801): 229.02 ± 63.13 cm
Distance travelled (cm) ([1]; (−)-I-27 0.4 mg/kg i.p. + MK801 0.2 mg/kg, 110 minutes after MK801): 210.95 ± 45.58 cm
Distance travelled (cm) ([1]; (−)-I-27 0.4 mg/kg i.p. + MK801 0.2 mg/kg, 115 minutes after MK801): 323.92 ± 121.74 cm
Distance travelled (cm) ([1]; (−)-I-27 0.4 mg/kg i.p. + MK801 0.2 mg/kg, 120 minutes after MK801): 324.23 ± 68.48 cm
Distance travelled (cm) ([1]; (−)-I-27 0.4 mg/kg i.p., 0 minutes, before MK801): 441.97 ± 55.83 cm
Distance travelled (cm) ([1]; (−)-I-27 0.4 mg/kg i.p., −5 minutes, before MK801): 317.51 ± 24.51 cm
Distance travelled (cm) ([1]; (−)-I-27 0.4 mg/kg i.p., −10 minutes, before MK801): 419.17 ± 56.13 cm
Distance travelled (cm) ([1]; (−)-I-27 0.4 mg/kg i.p., −15 minutes, before MK801): 374.1 ± 25.44 cm
Distance travelled (cm) ([1]; (−)-I-27 0.4 mg/kg i.p., −20 minutes, before MK801): 475.66 ± 9.82 cm
Distance travelled (cm) ([1]; (−)-I-27 0.4 mg/kg i.p., −25 minutes, before MK801): 903.06 ± 46.43 cm
Inhibition of restraint-induced depression-like behaviors ([2]; 0.1 mg/kg and 0.025 mg/kg i.p., tail suspension and forced swimming tests): significantly inhibit
Immobility time (seconds), tail suspension test ([2]; (−)-I-27 0.025 mg/kg i.p.): 87.04 ± 7.69 s
Immobility time (seconds), tail suspension test ([2]; (−)-I-27 0.1 mg/kg i.p.): 54.13 ± 6.99 s
Gαi1 BRET (Emax %) [3]: (76%)
EC50 ([3]; read-out: Gαi1 BRET EC50): 0.166 µM
